Laboratory results: patent publication US20060211698A1, “Bicyclic heteroaryl derivatives for treating viruses” (Genelabs, Inc., priority 2005, published 2006)

Molecular target: T1, HCV-NS5b (Hepatitis C virus genotype 1b, UniProt Q9WMX2)
T1 construct: The cloned fragment was missing the C terminus 21 amino acid residues; (His)6 (C); made in house; host or cells: XL-1 cells (E. coli)
Assay: HCV-NS5b Enzyme Assay
Type: biochemical
Conditions: 1 μM test compound; incorporation of [3H]-UTP, 37° C., 2 hours
Excerpt: The coding sequence of NS5b protein was cloned by PCR from pFKI389luc/NS3-3′/ET as described by Lohmann, V., et al. (1999) Science 285, 110-113 using the following primers: • […] (SEQ. ID. NO. 1) • […] (SEQ. ID. NO. 2)
The cloned fragment was missing the C terminus 21 amino acid residues. The cloned fragment is inserted into an IPTG-inducible expression plasmid that provides an epitope tag (His)6 at the carboxy terminus of the protein.
The recombinant enzyme was expressed in XL-1 cells and after induction of expression, the protein was purified using affinity chromatography on a nickel-NTA column. Storage condition is 10 mM Tris-HCl pH 7.5, 50 mM NaCl, 0.1 mM EDTA, 1 mM DTT, 20% glycerol at −20° C.
The polymerase activity was assayed by measuring incorporation of radiolabeled UTP into a RNA product using a biotinylated, heteropolymeric template, which includes a portion of the HCV genome. Typically, the assay mixture […] contains 10 mM Tris-HCl (pH 7.5), 5 mM MgCl2, 0.2 mM EDTA, 10 mM KCl, 1 unit/μL RNAsin. 1 mM DTT, 10 μM each of NTP, including [^3H]-UTP, and 10 ng/μL biotinylated heteropolymeric template. 20× test compound in 2 μl's was then added as a 100% DMSO solution to achieve a final DMSO concentration of 5%. For IC50 determination a 10-point dose response was used. The compounds were serial diluted 2-fold […]. Typically for IC50's, compounds were tested starting at 50 uM or 2 μm depending on the potency. Reactions were started with addition of 10×NS5B in 4 μl's and allowed to incubate at 37° C. for 2 hours. Reactions were quenched with 8 μL of 100 mM EDTA and reaction mixtures (30 μL) were transferred to streptavidin-coated scintillation proximity microtiter plates (FlashPlates) and incubated at 4° C. overnight. Incorporation of radioactivity was determined by scintillation counting (cpm). The % Inhibition at a particular concentration was determined using the following equation, % Inhibition=100−[100*(cpm with inhibitor−bg)/(cpm with no inhibitor−bg)] where bg was the background with no enzyme.

Row | SMILES | inhibition at 1 µM [%] | % inhibition @ 1 μM [%]
1 | COc1ccc(-c2ccc(Cl)cc2)c(-c2ccc3cc(-c4[nH]c5cc(C(=O)O)ccc5c4C4CCCCC4)ccc3n2)c1 [Compound 200, 2-[2-(4′-chloro-4-methoxy-biphenyl-2-yl)-quinolin-6-yl]-3-cyclohexyl-1H-indole-6-carboxylic acid] | 96.2 | –
2 | COC(=O)c1ccc2c(C3CCCCC3)c(-c3ccc4nc(-c5cc(OC)ccc5-c5ccc(Cl)cc5)ccc4c3)n(CC(=O)O)c2c1 [Compound 201, 1-carboxymethyl-2-[2-(4′-chloro-4-methoxy-biphenyl-2-yl)-quinolin-6-yl]-3-cyclohexyl-1H-indole-6-carboxylic acid methyl ester] | 77.7 | –
3 | COc1ccc(-c2ccc(Cl)cc2)c(-c2ccc3cc(-c4c(C5CCCCC5)c5ccc(C(=O)O)cc5n4CC(=O)O)ccc3n2)c1 [Compound 202, 1-carboxymethyl-2-[2-(4′-chloro-4-methoxy-biphenyl-2-yl)-quinolin-6-yl]-3-cyclohexyl-1H-indole-6-carboxylic acid] | 98.3 | –
4 | COc1ccc(-c2ccc(Cl)cc2)c(-c2ccc3cc(-c4c(C5CCCCC5)c5ccc(C(=O)O)cc5n4CC(=O)N4CCOCC4)ccc3n2)c1 [Compound 203, 1-[N-morpholinocarbonylmethyl]-2-[2-(4′-chloro-4-methoxy-biphen-2-yl)-quinolin-6-yl]-3-cyclohexyl-1H-indole-6-carboxylic acid] | 98.7 | –
5 | COc1ccc(-c2ccc(Cl)cc2)c(-c2ccc3cc(-c4c(C5CCCCC5)c5ccc(C(=O)O)cc5n4CC(=O)N4CCNCC4)ccc3n2)c1 [Compound 204, 1-[N-piperazinylcarbonylmethyl]-2-[2-(4′-chloro-4-methoxy-biphen-2-yl)-quinolin-6-yl]-3-cyclohexyl-1H-indole-6-carboxylic acid] | 95.9 | –
6 | COc1ccc(-c2ccc(Cl)cc2)c(-c2ccc3cc(-c4c(C5CCCCC5)c5ccc(C(=O)O)cc5n4CC(=O)N4CCC(N5CCCC5)CC4)ccc3n2)c1 [Compound 205, 1-[(4-pyrrolidin-1-yl-piperidin-1-yl)carbonylmethyl]-2-[2-(4′-chloro-4-methoxy-biphen-2-yl)-quinolin-6-yl]-3-cyclohexyl-1H-indole-6-carboxylic acid] | 97 | –
7 | COc1ccc(-c2ccc(Cl)cc2)c(-c2ccc3cc(-c4c(C5CCCCC5)c5ccc(C(=O)O)cc5n4CC(=O)N(C)C)ccc3n2)c1 [Compound 206, 1-[N,N-dimethylaminocarbonyl-methyl]-2-[2-(4′-chloro-4-methoxy-biphen-2-yl)-quinolin-6-yl]-3-cyclohexyl-1H-indole-6carboxylic acid] | 99 | –
8 | NC(=O)c1cc(-c2ccc3cc(-c4c(C5CCCCC5)c5ccc(C(=O)O)cc5n4CC(=O)N4CCOCC4)ccc3n2)ccc1O [Compound 207, 1-[N-morpholinocarbonylmethyl]-2-[2-(3-amido-4-hydroxy-phenyl)-quinolin-6-yl]-3-cyclohexyl-1H-indole-6-carboxylic acid] | 95.7 | –
9 | NC(=O)c1cc(-c2ccc3cc(-c4c(C5CCCCC5)c5ccc(C(=O)O)cc5n4CC(=O)O)ccc3n2)ccc1O [Compound 208, 1-carboxylmethyl-2-[2-(3-Carbamoyl-4-hydroxy-phenyl)-quinolin-6-yl]-3-cyclohexyl-1H-indole-6-carboxylic acid] | 84.5 | –
10 | O=C(O)c1ccc2c(C3CCCCC3)c(-c3ccc4nc(-c5ccc(-n6ccnc6)cc5)ccc4c3)n(CC(=O)N3CCOCC3)c2c1 [Compound 209, 1-[N-morpholinocarbonylmethyl]-2-[2-(4-(1H-imidazolyl)phenyl)-quinolin-6-yl]-3-cyclohexyl-1H-indole-6-carboxylic acid] | – | 98.5
11 | Cc1nc(C)c(-c2ccc3cc(-c4c(C5CCCCC5)c5ccc(C(=O)O)cc5n4CC(=O)N4CCOCC4)ccc3n2)s1 [Compound 210, 1-[N-morpholinocarbonylmethyl]-2-[2-(2,4-dimethylthiazol-5-yl)-quinolin-6-yl]-3-cyclohexyl-1H-indole-6-carboxylic acid] | 97.3 | –
12 | Cc1nc(C)c(-c2ccc3cc(-c4c(C5CCCCC5)c5ccc(C(=O)O)cc5n4CC(=O)O)ccc3n2)s1 [Compound 211, 1-[carboxymethyl]-2-[2-(2,4-dimethylthiazol-5-yl)-quinolin-6-yl]-3-cyclohexyl-1H-indole-6-carboxylic acid] | 91 | –
13 | Cc1nc(C)c(-c2ccc3cc(-c4c(C5CCCCC5)c5ccc(C(=O)O)cc5n4CC(=O)N(C)C)ccc3n2)s1 [Compound 212, 1-[N,N-dimethylaminocarbonyl-methyl]-2-[2-(2,4-dimethylthiazol-5-yl)-quinolin-6-yl]-3-cyclohexyl-1H-indole-6-carboxylic acid] | 96.8 | –
14 | Cc1nc(C)c(-c2ccc3cc(-c4c(C5CCCCC5)c5ccc(C(=O)O)cc5n4CC(=O)NCC(=O)O)ccc3n2)s1 [Compound 213, 1-[(N-carboxymethycarbamoyl)-methyl]-[2-(2,4-dimethyl-thiazol-5-yl)-quinolin-6-yl]-3-cyclohexyl-1H-indole-6-carboxylic acid] | – | 92.1
15 | Cc1nc(C)c(-c2ccc3cc(-c4c(C5CCCCC5)c5ccc(C(=O)O)cc5n4CC(=O)N4CCC(N5CCCC5)CC4)ccc3n2)s1 [Compound 214, 1-[2-oxo-2-(4-pyrrolidin-1-yl-piperidin-1-yl)-ethyl]-2-[2-(2,4-dimethylthiazol-5-yl)-quinolin-6-yl]-3-cyclohexyl-1H-indole-6-carboxylic acid] | 92.1 | –
16 | Cc1nc(C)c(-c2ccc3cc(-c4c(C5CCCCC5)c5ccc(C(=O)O)cc5n4CC(=O)NCCO)ccc3n2)s1 [Compound 215, 1-[(2-hydroxyethylcarbamoyl)-methyl]-2-[2-(2,4-dimethyl-thiazol-5-yl)-quinolin-6-yl]-3-cyclohexyl-1H-indole-6-carboxylic acid] | 94.3 | –

The remaining lines, values ahead:

Row | inhibition at 1 µM [%] | % inhibition @ 1 μM [%] | SMILES
17 | 98.8 | – | Cc1nc(C)c(-c2nc3ccc(-c4cc5ccc(C(=O)O)cc5n4CC(=O)N4CCCCC4)cc3cc2C2CCCCC2)s1 [Compound 216, 1-(2-oxo-2-piperidin-1-yl-ethyl)-2-[2-(2,4-dimethylthiazol-5-yl)-3-cyclohexylquinolin-6-yl]-1H-indole-6-carboxylic acid]
18 | – | 98.0 | O=C(O)c1ccc2c(C3CCCCC3)c(-c3ccc4nc(-c5ccccn5)ccc4c3)n(CC(=O)N3CCOCC3)c2c1 [Compound 217, 1-[N-morpholinocarbonylmethyl]-2-[2-(pyrid-2-yl)-quinolin-6-yl]-3-cyclohexyl-1H-indole-6-carboxylic acid]
19 | – | 96.2 | O=C(O)c1ccc2c(C3CCCCC3)c(-c3ccc4nc(-c5cnccn5)ccc4c3)n(CC(=O)N3CCOCC3)c2c1 [Compound 218, 1-[N-morpholinocarbonylmethyl]-2-[2-(pyrazin-2-yl)-quinolin-6-yl]-3-cyclohexyl-1H-indole-6-carboxylic acid]
20 | – | 96.0 | O=C(O)c1ccc2c(C3CCCCC3)c(-c3ccc4nc(-c5ccc[nH]5)ccc4c3)n(CC(=O)N3CCOCC3)c2c1 [Compound 219, 1-[N-morpholinocarbonylmethyl]-2-[2-(pyrrol-2-yl)-quinolin-6-yl]-3-cyclohexyl-1H-indole-6-carboxylic acid]
21 | – | 96.4 | O=C(O)c1ccc2c(C3CCCCC3)c(-c3ccc4nc(-c5ccccc5)ccc4c3)n(CC(=O)N3CCOCC3)c2c1 [Compound 220, 1-[N-morpholinocarbonylmethyl]-2-[2-phenylquinolin-6-yl]-3-cyclohexyl-1H-indole-6-carboxylic acid]
22 | 99.6 | – | COc1cccc(-c2ccc3cc(-c4c(C5CCCCC5)c5ccc(C(=O)O)cc5n4CC(=O)N4CCOCC4)ccc3n2)c1 [Compound 221, 3-Cyclohexyl-2-[2-(3-methoxy-phenyl)-quinolin-6-yl]-1-(2-morpholin-4-yl-2-oxo-ethyl)-1H-indole-6-carboxylic acid]
23 | – | 92.3 | O=C(O)c1ccc2c(C3CCCCC3)c(-c3ccc4nc(-c5ccco5)ccc4c3)n(CC(=O)N3CCOCC3)c2c1 [Compound 222, 1-[N-morpholinocarbonylmethyl]-2-(2-furan-2-yl-quinolin-6-yl)-3-cyclohexyl-1H-indole-6-carboxylic acid]
24 | – | 95.1 | Cc1ccc(-c2ccc3cc(-c4c(C5CCCCC5)c5ccc(C(=O)O)cc5n4CC(=O)N4CCOCC4)ccc3n2)o1 [Compound 223]
25 | – | 98.2 | O=C(O)c1ccc2c(C3CCCCC3)c(-c3ccc4nc(-c5cccs5)ccc4c3)n(CC(=O)N3CCOCC3)c2c1 [Compound 224, 1-[N-morpholinocarbonylmethyl]-2-[2-thien-2-ylquinolin-6-yl]-3-cyclohexyl-1H-indole-6-carboxylic acid]
